The source of these data is patent publication US20260294890A1, “LONG-TERM PREVENTION AND/OR TREATMENT OF A DISEASE BY SLO-1 INHIBITORS” (Elanco Animal Health GmbH, priority 2023, published 2026).

The nature of this series: Assay 1: half-life and plasma clearance upon intravenous administration to beagle dogs. Particulars: iv dose up to 0.3 mg/kg, Phoenix PK/PD (Example 1: internal tool); for clearance / half-life: dog, geometric mean; for half-life: read-out: Half-life (h/Form) iv, geometric mean (converted). The format is in vivo. As to the method: Assay 1: Determination of Half-Life and Plasma Clearance of Compounds of the Invention Upon Administration to Beagle Dogs
Compounds according to the invention were administered as an intravenous (iv) dose (up to 0.3 mg/kg) to beagle dogs (minimum n=3). Blood samples were collected from these beagle dogs up to 168 h after intravenous administration and up to 3024 h after subcutaneous administration. A portion of each whole blood sample was processed to plasma. Compound concentrations were determined in plasma using LCMS/MS. Phoenix™ Pharmacokinetic and Pharmacodynamic (PK/PD) was used to determine half-life and plasma clearance values. Only for Example 1, an internal tool available to the inventors was used to determine the half-life and plasma clearance values.

A word on the clearance: it is a measure of how efficiently the substance is removed, as volume per time. As to `CCc1c(C(=O)N[C@H]2CCOc3ccccc32)cnc2c(-c3cc(F)cc(F)c3F)c(F)ccc12` [Example 1, N-[(4S)-3,4-Dihydro-2H-chromen-4-yl]-4-ethyl-7-fluoro-8-(2,3,5-trifluorophenyl)quinoline-3-carboxamide], where the note is “plasma”, the clearance is 10 mL/min/kg and the half-life was 52 h.
On to `Cc1nn2c(C(C)C)c(C(=O)N[C@H]3CCc4ccccc43)cnc2c1-c1cc(Cl)c(F)c(Cl)c1` [Example 2, (S)-3-(3,5-dichloro-4-fluorophenyl)-N-(2,3-dihydro-1H-inden-1-yl)-7-isopropyl-2-methylpyrazolo[1,5-a]pyrimidine-6-carboxamide], for which, for the setting “plasma”, the clearance is 2.33 mL/min/kg and the half-life was 19 h.
For `Cc1nn2c(C(C)C)c(C(=O)N[C@H]3CCOc4ccccc43)cnc2c1-c1ccc(F)c(F)c1` [Example 3, (S)—N-(chroman-4-yl)-3-(3,4-difluorophenyl)-7-isopropyl-2-methylpyrazolo[1,5-a]pyrimidine-6-carboxamide], in that order: 3 mL/min/kg and 37.4 h.
For `O=C(N[C@H]1CCOc2ccccc21)c1cnc2c(-c3cc(Cl)cc(Cl)c3)c(F)ccc2c1N1CC(F)C1` [Example 5, (S)—N-(chroman-4-yl)-8-(3,5-dichlorophenyl)-7-fluoro-4-(3-fluoroazetidin-1-yl)quinoline-3-carboxamide], where the note is “plasma”, the clearance was 1.17 mL/min/kg and the half-life was 160 h.
For `O=C(N[C@H]1CCOc2ccccc21)c1cnc2c(-c3cc(F)cc(F)c3F)c(F)ccc2c1C1CS(=O)(=O)C1` [Example 8, N-[(4S)-3,4-dihydro-2H-chromen-4-yl]-4-(1,1-dioxidothietan-3-yl)-7-fluoro-8-(2,3,5-trifluorophenyl)quinoline-3-carboxamide] the same measures were 11.5 mL/min/kg and 43.6 h.
Consider `Cc1nn2c(C(C)C)c(C(=O)N[C@H]3CCOc4ccccc43)cnc2c1-c1c(F)cccc1Cl` [Example 10, (S)-3-(2-chloro-6-fluorophenyl)-N-(chroman-4-yl)-7-isopropyl-2-methylpyrazolo[1,5-a]pyrimidine-6-carboxamide], for which, where the note is “plasma”, the clearance was 6.17 mL/min/kg and the half-life was 24.7 h.
`O=C(N[C@H]1CCOc2ccccc21)c1cnc2c(-c3cc(F)cc(F)c3F)cccc2c1C1COC1` [Example 11, (S)—N-(chroman-4-yl)-4-(oxetan-3-yl)-8-(2,3,5-trifluorophenyl)quinoline-3-carboxamide]: under “plasma”, the clearance was 5 mL/min/kg and the half-life is 47.8 h.
For `O=C(N[C@H]1CCOc2ccccc21)c1cnc2c(-c3cc(F)cc(F)c3F)cccc2c1C1CCOCC1` [Example 12, N-[(4S)-3,4-Dihydro-2H-chromen-4-yl]-4-(tetrahydro-2H-pyran-4-yl)-8-(2,3,5-trifluorophenyl)quinoline-3-carboxamide] the same measures were 17 mL/min/kg and 21.4 h.
In the case of `O=C(N[C@H]1CCOc2ccccc21)c1cnc2c(-c3cc(F)cc(F)c3F)c(F)ccc2c1C1CCOCC1` [Example 14], under “plasma”, the clearance was 3 mL/min/kg and the half-life is 43.4 h.
“(S)—N-(2,3-Dihydro-1H-inden-1-yl)-3-(3-fluorophenyl)-7-isopropyl-2-methylpyrazolo[1,5-a]pyrimidine-6-carboxamide [Example 13]”: the “Plasma Clearance, geometric mean” value was found to be 9.33 mL/min/kg. Further, the “Half-life (h/Form) iv, geometric mean” value (plasma) is listed as 45.43 h.
